From patent US10048272B2, “High-affinity small molecule formylpeptide receptor ligands from screening of combinatorial mixture-based libraries” (STC.UNM, priority 2013, dated 2018)
“Also recorded” adds a separate entry of the source.

Experiments:
[1] = target: T1, FPR1 (Homo sapiens, UniProt P21462); test: Duplex flow cytometry receptor binding assay (WPep-FITC fluorescent ligand competition), U937/FPR1 cells; set-up: expressed in transfected cells; host or cells: U937 cells (U937/FPR1); settings: for Ki: WPep-FITC displacement, U937/FPR1 cells
T1 sequence (P21462 1-350): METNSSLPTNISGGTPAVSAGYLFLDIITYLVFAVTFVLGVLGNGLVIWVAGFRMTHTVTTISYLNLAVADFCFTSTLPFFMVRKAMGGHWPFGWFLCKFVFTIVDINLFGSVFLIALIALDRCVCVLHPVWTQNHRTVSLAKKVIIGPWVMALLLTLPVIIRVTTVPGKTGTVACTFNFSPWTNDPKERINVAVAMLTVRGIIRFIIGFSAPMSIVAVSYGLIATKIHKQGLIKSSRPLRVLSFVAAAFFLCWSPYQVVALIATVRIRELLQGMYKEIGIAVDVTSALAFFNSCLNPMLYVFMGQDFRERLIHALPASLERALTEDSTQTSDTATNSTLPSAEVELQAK
Method: Flow cytometry receptor binding assay. The assay was performed in a “duplex” format in which U937/FPR1 cells were tested together with RBL/FPR2 cells as previously described (Young, et al., 2009)(PubChem Summary AIDs 805 and 1202). The FPR1-expressing cells were stained with a red-fluorescent dye, FuraRed™ allowing them to be distinguished from the FPR2-expressing cells during flow cytometric analysis. A fluorescein label was conjugated to the lysine residue of the WPep peptide (WKYMVm) to produce a fluorescent ligand (WPep-FITC) that bound both FPR1 and FPR2. […] Assays were performed in polystyrene 384-well plates with small volume wells (Greiner #784101). Additions to wells were in sequence as follows: (1) test compounds and control reagents (5 ul/well); (2) the combined suspension of U937/FPR1 and RBL/FPR2 cells (5 ul/well) and; (3) (after 30 min, 4° C. incubation) WPep-FITC (5 ul/well). After an additional 45 min, 4° C. incubation, plates were immediately analyzed using flow cytometry. The assay response range was defined by replicate control wells containing unlabeled receptor-blocking peptide (positive control) or buffer (negative control). fMLFF was used as the FPR1-blocking peptide and unlabeled WPep as the FPR2-blocking peptide. Final concentration of WPep-FITC was 5 nM. The assay was homogeneous in that cells, compounds and fluorescent peptide were added in sequence and the wells subsequently analyzed without intervening wash steps. The HyperCyt™ high-throughput flow-cytometry platform (Kuckuck, et al., 2001; Ramirez, et al., 2003) was used to sequentially sample cells from wells of 384-well microplates (2 ul/sample) for presentation to a CyAn flow cytometer (Beckman-Coulter) at a rate of 40 samples/min. Fluorescence was excited at 488 nm and detected with 530/40 and 680/30 optical bandpass filters for WPep-FITC and FuraRed™, respectively. Test compound inhibition of fluorescent peptide binding was calculated as percent inhibition. WPep-FITC fluorescence intensity measurements of cells from control wells were also used to calculate Z′ factors (Zhang, et al., 1999), which ranged between 0.6 and 0.8 for each assay.
Dose response determinations. Fluorescent ligand competition dose response assays were performed essentially as described for single concentration assays except that test compounds were initially tested at a starting concentration of 10 mM in DMSO and serially diluted 1:3 to produce final concentration ranging from 67 μM to 0.1 nM. The resulting ligand competition curves were fitted by Prism software (GraphPad Software, Inc., San Diego, Calif.) using nonlinear least-squares regression in sigmoidal dose response model with variable slope, also known as the four parameter logistic equation. […]
(§1) FPR expression ranged from 100,000 to 200,000 receptors per cell in different assays as determined by comparison to standard curves generated with Fluorescein Reference Standard Microbeads (Bangs Laboratories, Fishers, Ind.). […] To account for effects of possible ligand depletion at the higher receptor concentrations, Ki values were calculated from IC50 estimates by the method of Munson and Rodbard (Munson and Rodbard, 1988): Ki=Kd×[y0/(y0+2]+IC50/{1+[p*×(y0+2)]/[2×Kd×(y0+1)]+y0} in which y0 is the initial bound-to-free concentration ratio for the fluorescent ligand, p* is the added concentration of fluorescent ligand and Kd is the dissociation constant for the fluorescent ligand.

[2] = target: T1, FPR1; test: Intracellular calcium mobilization assay, FPR1 cells (agonist and antagonist determinations); assay type: cell-based; set-up: expressed in transfected cells; host or cells: U937 cells (U937/FPR1); settings: for Functional activity in FPR1-mediated intracellular Ca2+ response (agonist/antagonist): result in words
Method: (§2) Intracellular calcium mobilization assays. Intracellular calcium mobilization assays were performed as previously described with modifications (Edwards, et al., 2005). Briefly, cells were collected by centrifugation (200×g, 10 min, 24° C.) and suspended at 10^6/ml in 1 ml PBS (Ca^2+, Mg^2+ free). Cells were added with 210 nM Fluo4 (FPR2 cells) or with a combination of 210 nM Fluo4 and 210 nM FuraRed (FPR1 cells). After incubation for 30 min at 24° C. cells were washed with 1 ml PBS, suspended in 1 ml TCM (RPMI, 10% FBS) and stored in the dark at 24° C. until used in assays. For test compound agonist determinations, 50 μL from FPR1 and FPR2 cell suspensions were combined, analyzed 10 s in an Accuri C6 flow cytometer (BD Biosciences) to determine baseline Fluo4 fluorescence in the FL1 channel (530/20 nm), then added with 50 μL containing test compounds and analyzed an additional 110 s to evaluate changes in Fluo4 fluorescence intensity. During the analysis FPR1 cells were distinguished from FPR2 cells on the basis of FuraRed fluorescence intensity detected in the FL3 channel ([…]). The innate calcium response was quantified as the maximum % of cells that exceeded the baseline Fluo4 fluorescence intensity over the course of the analysis. These responses were normalized to the innate calcium responses observed in the presence of 11 nM control peptides: 4pep for FPR1 cells and Wpep for FPR2 cells as follows: Normalized Calcium Response (%)=100×innate response % to test compound/innate response % to control peptide.
(§3) For test compound antagonist determinations, 10 μL test compound was added to the combined FPR1/FPR2 cell mixture and incubated 5 min at 24° C. prior to assessing the innate calcium response to subsequent addition of fMLFF or Wpep peptide. In these determinations, fMLFF and Wpep were used at concentrations that produced 90% of the maximal intracellular calcium response (EC90), and responses were normalized with respect to the innate response to each control peptide observed in the absence of test compounds.
(§4) Intracellular Ca^2+ dose response curves were also fitted using nonlinear least-squares regression in a sigmoidal dose response model with variable slope. Curve fit statistics were used to determine the concentration of added test compound competitor that inhibited Ca^2+ responses by 50 percent (IC50) for antagonists or effected increases in Ca^2+ response by 50% (EC50) for agonists. Since responses were normalized relative to control stimuli the top and bottom of the fitted curves were fixed at 100 and 0.

[3] = target: T2, FPR2 (Homo sapiens, UniProt P25090); test: Intracellular calcium mobilization assay, FPR2 cells (agonist and antagonist determinations); assay type: cell-based; set-up: expressed in transfected cells; settings: for Functional activity in FPR2-mediated intracellular Ca2+ response (agonist/antagonist): result in words
T2 sequence (P25090 1-351): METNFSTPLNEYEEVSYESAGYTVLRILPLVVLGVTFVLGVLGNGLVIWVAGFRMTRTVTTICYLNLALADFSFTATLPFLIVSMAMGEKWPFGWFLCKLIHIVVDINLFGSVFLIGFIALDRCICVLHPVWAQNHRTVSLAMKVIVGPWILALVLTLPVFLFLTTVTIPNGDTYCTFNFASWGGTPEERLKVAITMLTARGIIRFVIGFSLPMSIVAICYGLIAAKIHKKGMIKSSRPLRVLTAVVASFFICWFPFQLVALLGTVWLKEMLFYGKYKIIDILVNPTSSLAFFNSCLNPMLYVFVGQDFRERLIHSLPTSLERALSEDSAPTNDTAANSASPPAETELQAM
Method: as §2, §3, §4

[4] = target: T2, FPR2; test: Duplex flow cytometry receptor binding assay (WPep-FITC fluorescent ligand competition), RBL/FPR2 cells; set-up: expressed in transfected cells; settings: for FPR2 selectivity: FPR2 over FPR1
Method: Flow cytometry receptor binding assay. The assay was performed in a “duplex” format in which U937/FPR1 cells were tested together with RBL/FPR2 cells as previously described (Young, et al., 2009)(PubChem Summary AIDs 805 and 1202). The FPR1-expressing cells were stained with a red-fluorescent dye, FuraRed™ allowing them to be distinguished from the FPR2-expressing cells during flow cytometric analysis. A fluorescein label was conjugated to the lysine residue of the WPep peptide (WKYMVm) to produce a fluorescent ligand (WPep-FITC) that bound both FPR1 and FPR2. […] Assays were performed in polystyrene 384-well plates with small volume wells (Greiner #784101). Additions to wells were in sequence as follows: (1) test compounds and control reagents (5 ul/well); (2) the combined suspension of U937/FPR1 and RBL/FPR2 cells (5 ul/well) and; (3) (after 30 min, 4° C. incubation) WPep-FITC (5 ul/well). After an additional 45 min, 4° C. incubation, plates were immediately analyzed using flow cytometry. The assay response range was defined by replicate control wells containing unlabeled receptor-blocking peptide (positive control) or buffer (negative control). fMLFF was used as the FPR1-blocking peptide and unlabeled WPep as the FPR2-blocking peptide. Final concentration of WPep-FITC was 5 nM. The assay was homogeneous in that cells, compounds and fluorescent peptide were added in sequence and the wells subsequently analyzed without intervening wash steps. […] Fluorescence was excited at 488 nm and detected with 530/40 and 680/30 optical bandpass filters for WPep-FITC and FuraRed™, respectively. Test compound inhibition of fluorescent peptide binding was calculated as percent inhibition. WPep-FITC fluorescence intensity measurements of cells from control wells were also used to calculate Z′ factors (Zhang, et al., 1999), which ranged between 0.6 and 0.8 for each assay. […]
as §1

[5] = target: T2, FPR2; settings: literature; cited from earlier work
[6] = target: T1, FPR1; settings: literature; cited from earlier work
[7] = second compound of the printed pair relative to the first (1754-26 to 1754-56)

**Q.** For `CCCC[C@H](CN(C(=O)Nc1ccccc1)[C@@H](C)CNC(=O)Nc1ccccc1)N(CCCCc1ccccc1)C(=O)Nc1ccccc1` [1753-103], which Ki [1] is on record?
**A.** The Ki was 4 nM.

**Q.** And the EC50 ([2]; agonist determination, read-out: EC50, intracellular Ca2+ response, FPR1 agonist)?
**A.** The EC50 was 131 nM.

**Q.** What about the “Response efficacy (fitted Top), Ca2+ response in FPR1 cells” value ([2]; maximum response relative to control peptide 4pep (fMLFF)) of the same compound?
**A.** Its value is 78%.

**Q.** And the “Functional activity in FPR1-mediated intracellular Ca2+ response (agonist/antagonist)” value [2]?
**A.** The value was “selective partial agonists; also recorded: agonist”.

**Q.** With `CC(C)[C@H]1CNC(=O)C(=O)N1C[C@@H]1CCCN1C[C@@H](Cc1ccc2ccccc2c1)N1C[C@@H](Cc2ccc(O)cc2)N(CC2CCCCC2)C(=O)C1=O` [1754-31] as the compound, how does the IC50 ([3]; antagonist determination, Wpep at EC90, read-out: IC50, intracellular Ca2+ response, FPR2 antagonist) read?
**A.** The IC50 was 81 nM.

**Q.** What about the “Functional activity in FPR2-mediated intracellular Ca2+ response (agonist/antagonist)” value [3] of the same compound?
**A.** Its value is “antagonist”.

**Q.** And the “Receptor selectivity, FPR1 versus FPR2, in ligand competition binding (in words)” value [1]?
**A.** Its value is “FPR2 selective”.

**Q.** What about the Ki [1] of the same compound?
**A.** Its Ki is > 10000 nM.

**Q.** And the Ki ([4]; WPep-FITC displacement, RBL/FPR2 cells)?
**A.** The Ki was 1 nM.

**Q.** And the FPR2 selectivity ([4]; as printed in b133 ('nM Ki'))?
**A.** Its FPR2 selectivity is > 10,000 nM.

**Q.** What about the FPR2 selectivity ([4]; no unit) of the same compound?
**A.** Its FPR2 selectivity is > 10,000.

**Q.** With `CCCC[C@H]1CNC(=O)C(=O)N1C[C@@H]1CCCN1C[C@@H](CCC)N1C[C@@H](Cc2ccc(O)cc2)N(CCc2ccc(-c3ccccc3)cc2)C(=O)C1=O` [1754-56] as the compound, how does the “EC50, FPR2-mediated Ca2+ response, agonist (in words)” value ([3]; matched the Ki value of the ligand displacement assay) read?
**A.** The value was “low micromolar”.

**Q.** What about the “Response efficacy (fitted Top), Ca2+ response in FPR2 cells” value ([3]; maximum response relative to control peptide Wpep (WKYMVm)) of the same compound?
**A.** The value was 98%.

**Q.** And the “Functional activity in FPR2-mediated intracellular Ca2+ response (agonist/antagonist)” value [3]?
**A.** Its value is “agonist”.

**Q.** What about the “Receptor selectivity, FPR1 versus FPR2, in ligand competition binding (in words)” value [1] of the same compound?
**A.** The value was “FPR1 selective”.

**Q.** What about the “Increase of activity for FPR1 (potency difference, pKi)” value [1, 7] of the same compound?
**A.** The value was 1.36 log units.

**Q.** And the “Functional activity in FPR1-mediated intracellular Ca2+ response (agonist/antagonist)” value [2]?
**A.** The value was “antagonist”.

**Q.** What about the “Decrease of activity for FPR2 (potency difference, pKi)” value [4, 7] of the same compound?
**A.** The value was 1.28 log units.

**Q.** With `CCCCOc1ccc(C(=O)NN2C(=O)c3ccccc3NC2c2ccc(OC)cc2)cc1` (centres unmarked) [Quin-C1] as the compound, how does the “Functional activity at FPR2 (in words)” value [5] read?
**A.** Its value is “agonist”.

**Q.** For `CCCCOc1ccc(C(=O)NN2C(=O)c3ccccc3NC2c2ccc(O)cc2)cc1` (centres unmarked) [Quin-C7], which “Functional activity at FPR1 (in words)” value [6] is on record?
**A.** Its value is “antagonist”.
